The values that follow come from paper PMC7037682, “Herb–Drug Interaction of Red Ginseng Extract and Ginsenoside Rc with Valsartan in Rats” (Molecules, 2020).

In one data set the target is T1, OCT2 (Homo sapiens, UniProt O15244).
T1 sequence (O15244 1-555): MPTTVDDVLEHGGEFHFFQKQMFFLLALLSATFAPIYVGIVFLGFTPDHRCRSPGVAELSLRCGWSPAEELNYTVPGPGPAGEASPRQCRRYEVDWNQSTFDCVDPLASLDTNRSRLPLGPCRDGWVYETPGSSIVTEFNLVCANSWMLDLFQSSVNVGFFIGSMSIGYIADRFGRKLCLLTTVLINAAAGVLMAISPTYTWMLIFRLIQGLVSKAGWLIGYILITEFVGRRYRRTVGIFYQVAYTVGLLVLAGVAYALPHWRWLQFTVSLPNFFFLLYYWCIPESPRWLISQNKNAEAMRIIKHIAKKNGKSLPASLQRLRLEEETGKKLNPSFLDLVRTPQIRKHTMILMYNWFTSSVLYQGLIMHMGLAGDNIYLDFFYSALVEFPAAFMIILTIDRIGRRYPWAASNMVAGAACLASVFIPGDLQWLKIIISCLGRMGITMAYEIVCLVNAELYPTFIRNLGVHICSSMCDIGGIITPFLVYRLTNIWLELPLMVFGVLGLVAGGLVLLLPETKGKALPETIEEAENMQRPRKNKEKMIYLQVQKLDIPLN
The data set can be described thus: Inhibition of OCT2-mediated [3H]MPP+ uptake in HEK293-OCT2 cells. The procedure:
(§1) HEK293 cells overexpressing the OCT1, OCT2, OAT1, OAT3, OATP1B1, and OATP1B3 transporters (HEK293-OCT1, -OCT2, -OAT1, -OAT3, -OATP1B1, and -OATP1B3, respectively) and HEK293-mock cells (Corning Life Sciences; Woburn, MA, USA) were used and characterized as previously described.
(§2) HEK293 cells overexpressing drug transporters and HEK293-mock cells were seeded in poly-D-lysine-coated 96-well plates at a density of 10^5 cells/well and were cultured in DMEM supplemented with 10% FBS, 5 mM non-essential amino acids, and 2 mM sodium butyrate in a humidified atmosphere with 8% CO2 at 37 °C.
(§3) To examine the effects of ginsenosides and typical inhibitors on transporter activity, aliquots (100 μL) of HBSS containing the probe substrate and ginsenosides or typical inhibitors were added to the cells after aspirating pre-incubated HBSS. The concentrations and probe substrates were as follows: 0.1 μM [^3H]MPP^+ for OCT1 and OCT2, 0.1 μM [^3H]PAH for OAT1, 0.1 μM [^3H]ES for OAT3 and OATP1B1, and 0.1 μM [^3H]EG for OATP1B3. […] Then the uptake of probe substrates into HEK293-mock cells and HEK293-OCT1, -OCT2, -OAT1, -OAT3, -OATP1B1, and -OATP1B3 cells in the presence and absence of typical inhibitor or each ginsenoside with previously described concentration range was measured for 5 min. Immediately after placing the plates on ice, the cells were washed three times with 100 μL of ice-cold HBSS, followed by lysing with 50 μL of 10% SDS solution and mixing with 150 μL of Optiphase cocktail solution (Perkin Elmer Inc., Boston, MA, USA). The radioactivity of the probe substrates in the cells was determined using a liquid scintillation counter.
(§4) In the inhibition studies, the uptake rate of substrate by HEK293 cells overexpressing the respective transporters was used as the control (100%) and the uptake rate of substrates in the presence of typical inhibitors or ginsenosides expressed as a percentage of the control. The inhibition data were fitted to an inhibitory effect model using Sigma plot (version 10.0; Systat Software Inc., San Jose, CA, USA). IC50 value indicated the half-maximal inhibitory concentration of the inhibitor.

The next data set has as its target T2, OAT3 (Homo sapiens, UniProt Q8TCC7).
T2 sequence (Q8TCC7 1-542): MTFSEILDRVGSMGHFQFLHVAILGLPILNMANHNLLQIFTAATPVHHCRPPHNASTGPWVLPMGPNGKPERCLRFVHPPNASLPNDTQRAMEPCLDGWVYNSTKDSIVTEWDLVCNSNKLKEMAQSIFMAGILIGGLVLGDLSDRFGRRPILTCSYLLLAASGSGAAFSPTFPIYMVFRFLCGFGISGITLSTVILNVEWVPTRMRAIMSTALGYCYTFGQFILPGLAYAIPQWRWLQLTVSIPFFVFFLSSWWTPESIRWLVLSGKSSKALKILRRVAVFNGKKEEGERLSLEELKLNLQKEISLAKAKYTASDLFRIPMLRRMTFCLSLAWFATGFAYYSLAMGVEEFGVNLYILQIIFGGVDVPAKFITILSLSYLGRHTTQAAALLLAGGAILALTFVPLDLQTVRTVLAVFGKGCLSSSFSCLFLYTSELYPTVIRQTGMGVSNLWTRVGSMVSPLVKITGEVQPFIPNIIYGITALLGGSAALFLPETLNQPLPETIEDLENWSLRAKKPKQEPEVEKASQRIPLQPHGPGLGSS
The experiment in a line: Inhibition of OAT3-mediated [3H]ES uptake in HEK293-OAT3 cells. As for the experimental part:
as §1, §2, §3, §4

The nature of data set [1]: Plasma pharmacokinetics of ginsenosides in rats after 1-week repeated RGE. The settings on record: LC-MS/MS, after RGE 1.5 g/kg/day po for 1 week. The procedure:
The rats were randomly divided into the control and RGE groups. The RGE group received a RGE suspension (1.5 g/mL/kg/day, in distilled water) for 7 days via oral gavage. The control group received distilled water for 7 days via oral gavage. After 1 h following the last RGE treatment, valsartan was injected intravenously to both groups via the tail vein at 1 mg/mL/kg (dissolved in DMSO: saline = 2:8, v/v). […] After centrifugation of the blood samples at 16,000× g for 10 min, aliquots (50 μL each) of plasma samples were stored at −80 °C until the analysis of ginsenosides and valsartan.
The residue was reconstituted with 100 μL of 70% methanol consisting of 0.1% formic acid. An aliquot (20 μL) from the sample was injected into the LC-MS/MS system.
After freezing the aqueous layer at −80 °C for 2 h, the upper organic layer was transferred to a clean tube and evaporated to dryness. […] An aliquot (20 μL) from the sample was injected into the LC-MS/MS system. The samples were eluted through an Omega Polar C18 column (2.1 mm × 100 mm, 3 µm particle size) (Phenomenex, Torrance, CA, USA) using a mobile phase consisting of 0.1% formic acid in water: 0.1% formic acid in methanol (15:85, v/v) at a flow rate of 0.2 mL/min.
Pharmacokinetic parameters were calculated from plasma concentration-time profile using non-compartment analysis of WinNonlin (version 5.1; Pharsights, Cary, NC, USA). The statistical significance was assessed by t-test using Statistical Package for the Social Sciences (version 24.0; SPSS Inc., Chicago, IL, USA).

Setting [2] is: read-out: IC50 OCT2, HEK293-OCT2, 0.1 μM [3H]MPP+ uptake, 5 min.
[3] abbreviates: read-out: IC50 OAT3, HEK293-OAT3, 0.1 μM [3H]ES uptake, 5 min.

Where two headings read alike, the source gives them in different places.

In general, IC50 refers to the concentration at which inhibition is half-maximal.

Turning to `CC(C)=CCC[C@](C)(O[C@@H]1O[C@H](CO)[C@@H](O)[C@H](O)[C@H]1O)[C@H]1CC[C@]2(C)[C@@H]1[C@H](O)C[C@@H]1[C@@]3(C)CC[C@H](O)C(C)(C)[C@@H]3[C@@H](O[C@@H]3O[C@H](CO)[C@@H](O)[C@H](O)[C@H]3O)C[C@]12C` [Rg1, ginsenoside Rg1], the 50% inhibitory concentration (IC50) against OCT2 and against OAT3 was > 100 µM throughout. For the same molecule, in data set [1], the “detection in rat plasma” value is recorded as “not detected”.
Turning to `CC(C)=CCC[C@](C)(O)[C@H]1CC[C@]2(C)[C@@H]1[C@H](O)C[C@@H]1[C@@]3(C)CC[C@H](O[C@@H]4O[C@H](CO)[C@@H](O)[C@H](O)[C@H]4O[C@@H]4O[C@H](CO)[C@@H](O)[C@H](O)[C@H]4O)C(C)(C)[C@@H]3CC[C@]12C` [Rg3, ginsenoside Rg3], the IC50 at OCT2 (setting [2]) and on OAT3 (setting [3]) was > 100 µM each time. The “detection in rat plasma” value in data set [1] is on record as “not detected”.
With `CC(C)=CCC[C@](C)(O[C@@H]1O[C@H](CO)[C@@H](O)[C@H](O)[C@H]1O)[C@H]1CC[C@]2(C)[C@@H]1[C@H](O)C[C@@H]1[C@@]3(C)CC[C@H](O)C(C)(C)[C@@H]3CC[C@]12C` [Compound K, compound K], the half-maximal inhibitory concentration (IC50) on OCT2 (setting [2]) and on OAT3 (setting [3]) was > 100 µM in each case. In addition, the “detection in rat plasma” value in data set [1] was “not detected”.
